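Results reflect a 48-hour exposure of cells in 96-well plates to compound at five concentrations. GI50 marks 50% less growth.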 The source made the active and inactive calls. No stated cut-off is given here; in the data, active = GI50 up to about 1.1 µM and inactive = higher. Bounds are passed on as bounds.

Test systems include MDA-MB-435; TK-10; SK-MEL-5; RXF 393; SNB-75; RPMI-8226; HOP-62; Hs-578T; HL-60; K562; SK-MEL-2; KM12; SK-MEL-28; SF-539; BT-549; NCI-H23; LOX IMVI; HOP-92; IGROV-1; MCF7.
Holding throughout (experiment): NCI tumour cell line growth inhibition, 48 h

On to `O=C1O[C@]2(c3ccccc3)C(c3ccccc3)=C[C@]2(C(=O)c2ccccc2)C1=O`, for which the GI50 was 37.2 µM (inactive) in the assay with MDA-MB-435; 27 µM (inactive) in the assay on TK-10; 31.8 µM (inactive) in the assay on SK-MEL-5; 0.05 µM (active) in the assay on RXF 393; 3.92 µM (inactive) in the assay with SNB-75; 25.8 µM (inactive) in the assay on RPMI-8226. Besides, the GI50 was 34 µM (inactive) with HOP-62; 39.2 µM (inactive) with Hs-578T; 5.98 µM (inactive) with HL-60; 23 µM (inactive) with K562; 27.2 µM (inactive) in the assay with SK-MEL-2; 35.8 µM (inactive) in the assay with KM12. Besides, the GI50 is 35.6 µM (inactive) in the assay on SK-MEL-28; 23 µM (inactive) in the assay with SF-539; 36.1 µM (inactive) in the assay on BT-549; 33.7 µM (inactive) in the assay on NCI-H23; 28.9 µM (inactive) in the assay with LOX IMVI; 24 µM (inactive) with HOP-92. The figures for the GI50 with IGROV-1 and in the assay with MCF7 were 33.1 µM (inactive) and 28.4 µM (inactive), respectively.

Regarding `CN(C)/C=N/c1ccc2[nH]c3ccccc3c2c1`, the GI50 in the assay with MDA-MB-435 was 18 µM (inactive); with TK-10 it was 28.2 µM (inactive); in the assay on SK-MEL-5 it was 16.7 µM (inactive); in the assay with RXF 393, 25.8 µM (inactive); in the assay with SNB-75, 37.7 µM (inactive); in the assay with RPMI-8226, 22.6 µM (inactive). Besides, the GI50 with HOP-62 was 23.2 µM (inactive); in the assay with Hs-578T, 38.5 µM (inactive); in the assay on HL-60, 18.1 µM (inactive); in the assay on K562 it was 20.4 µM (inactive); in the assay with SK-MEL-2, 16.7 µM (inactive); in the assay with SK-MEL-28, 23.3 µM (inactive). For the same compound, the GI50 in the assay on SF-539 was 20.8 µM (inactive); in the assay with BT-549, > 100 µM (inactive); with NCI-H23, 49.3 µM (inactive); in the assay with LOX IMVI, 15.7 µM (inactive); with HOP-92, 15.8 µM (inactive); in the assay on IGROV-1, 43.5 µM (inactive). Further, the GI50 in the assay with MCF7 is 32.1 µM (inactive).

Consider `CCCCCCCCCCCCOP(=O)(O)OCC(N)C(=O)O` (stereo not given), for which the GI50 in the assay on MDA-MB-435 was 18.2 µM (inactive); in the assay on TK-10, 24.7 µM (inactive); in the assay with SK-MEL-5 it was 23.4 µM (inactive); with RXF 393 it was 21 µM (inactive); in the assay with SNB-75, 18.5 µM (inactive); in the assay on RPMI-8226, 24.7 µM (inactive). The GI50 in the assay on HOP-62 was 15.4 µM (inactive); in the assay on Hs-578T, 10.3 µM (inactive); with HL-60, 17.4 µM (inactive); with K562, 29.5 µM (inactive); in the assay with SK-MEL-2, 22.8 µM (inactive); with SK-MEL-28 it was 94.8 µM (inactive). Further, the GI50 is 22.3 µM (inactive) in the assay with SF-539; 21.2 µM (inactive) in the assay on BT-549; 29.9 µM (inactive) with NCI-H23; 20.4 µM (inactive) in the assay with LOX IMVI; 20.5 µM (inactive) with HOP-92; 35.6 µM (inactive) in the assay on IGROV-1. The GI50 with MCF7 was 39.3 µM (inactive).

Take `COc1ccc2nc3c(nc2c1)C(C)(C)C=C3c1ccc(Br)cc1`: the GI50 with MDA-MB-435 was > 100 µM (inactive); in the assay with TK-10, > 100 µM (inactive); with SK-MEL-5, > 100 µM (inactive); in the assay with RXF 393 it was > 100 µM (inactive); in the assay on SNB-75, 87.7 µM (inactive); in the assay on RPMI-8226, > 100 µM (inactive). The GI50 with HOP-62 is > 100 µM (inactive); in the assay with Hs-578T, > 100 µM (inactive); in the assay with HL-60, > 100 µM (inactive); with K562 it was > 10 µM (inactive); in the assay with SK-MEL-2, > 100 µM (inactive); in the assay on KM12, > 100 µM (inactive). The GI50 in the assay with SK-MEL-28 was > 10 µM (inactive); with SF-539 it was 97.3 µM (inactive); in the assay on BT-549 it was > 100 µM (inactive); in the assay on LOX IMVI, > 100 µM (inactive); in the assay on HOP-92, 32.5 µM (inactive); in the assay with IGROV-1, > 100 µM (inactive). The GI50 with MCF7 was > 100 µM (inactive).

`CC(=O)/N=C1/N(/C=C2\C(=O)Oc3ccccc3C2=O)C(=O)/C(=C/c2cccc(Cl)c2Cl)N1C`: the GI50 was 25.6 µM (inactive) in the assay on MDA-MB-435; 12.9 µM (inactive) with SK-MEL-5; 31.6 µM (inactive) in the assay on RXF 393; 17.3 µM (inactive) in the assay with SNB-75; 12.4 µM (inactive) in the assay with RPMI-8226; 19.7 µM (inactive) in the assay with HOP-62. For the same compound, the GI50 is 3.87 µM (inactive) with Hs-578T; 3.99 µM (inactive) in the assay on HL-60; 10.7 µM (inactive) in the assay with K562; 19.8 µM (inactive) with SK-MEL-2; 26.7 µM (inactive) with KM12; 29 µM (inactive) in the assay with SK-MEL-28. The GI50 in the assay on SF-539 is 4.42 µM (inactive); with BT-549 it was 20.4 µM (inactive); in the assay on NCI-H23, 23.9 µM (inactive); with LOX IMVI, 24.6 µM (inactive); with HOP-92, 0.0333 µM (active); with IGROV-1, 21.4 µM (inactive). In addition, the GI50 in the assay with MCF7 was 25.7 µM (inactive).

With `CC(C)(C)c1nc2c(o1)C(=O)c1ccccc1C2=O`, the GI50 was 0.185 µM (active) in the assay with MDA-MB-435; 5.65 µM (inactive) in the assay with TK-10; 0.437 µM (active) in the assay on SK-MEL-5; 2.08 µM (inactive) in the assay with RXF 393; 2.96 µM (inactive) in the assay with SNB-75; 1.93 µM (inactive) with RPMI-8226. The GI50 with HOP-62 is 3.37 µM (inactive); in the assay with Hs-578T, 0.927 µM (active); with HL-60 it was 0.718 µM (active); in the assay with K562, 0.834 µM (active); with SK-MEL-2, 0.592 µM (active); in the assay with KM12 it was 2.75 µM (inactive). Besides, the GI50 in the assay with SK-MEL-28 is 1.95 µM (inactive); in the assay on SF-539, 1.12 µM (inactive); in the assay with BT-549 it was 1.51 µM (inactive); in the assay with NCI-H23, 0.373 µM (active); in the assay on LOX IMVI, 0.394 µM (active); in the assay on HOP-92, 3.05 µM (inactive). The GI50 was 2.46 µM (inactive) in the assay with IGROV-1 and 0.485 µM (active) in the assay with MCF7.

In the case of `CC(C)(C)C(=O)OC(N)/C=C/c1ccccc1` (stereo not given), the GI50 in the assay on MDA-MB-435, with SK-MEL-5, with RXF 393, in the assay with SNB-75, with RPMI-8226 and in the assay on HOP-62 was > 100 µM (inactive) each time. In addition, the GI50 in the assay with Hs-578T is > 100 µM (inactive); with HL-60 it was 76.2 µM (inactive); in the assay on SK-MEL-2, > 100 µM (inactive); in the assay on KM12 it was > 100 µM (inactive); in the assay with SK-MEL-28 it was > 100 µM (inactive); in the assay with SF-539, > 100 µM (inactive). Also, the GI50 in the assay on BT-549, with NCI-H23, in the assay on HOP-92, with IGROV-1 and in the assay with MCF7 was > 100 µM (inactive) throughout.

Consider `Cc1nn(-c2ccccc2)c2nc(S)cnc12`, for which the GI50 in the assay with MDA-MB-435 was > 100 µM (inactive); with TK-10, > 100 µM (inactive); with RXF 393, > 100 µM (inactive); in the assay on RPMI-8226 it was 89.5 µM (inactive); with HOP-62 it was > 100 µM (inactive); in the assay on Hs-578T, > 100 µM (inactive). The GI50 with HL-60, in the assay on K562, in the assay with SK-MEL-2, in the assay on SK-MEL-28, in the assay with SF-539 and in the assay with BT-549 was > 100 µM (inactive) in each case. The GI50 in the assay on NCI-H23, in the assay on LOX IMVI, in the assay on HOP-92, in the assay with IGROV-1 and in the assay with MCF7 was > 100 µM (inactive) in each case.

The values are drawn from ChEMBL document CHEMBL1201862, “PubChem BioAssay data set” (2004).
